Data reported in patent US20120245180A1, “COMBINATION” (GlaxoSmithKline LLC, priority 2009, published 2012).
Where two headings read alike, the source gives them in different places. One block for each compound: values may come before it.

Assays:
SNU182 = assay: Cell growth inhibition assay, hepatocellular carcinoma cell line (Cell Titer Glo); format: cell-based; settings: Homo sapiens, SNU-182, 72 h, 3 days
Description: (§1) Human tumor cell lines from hepatocellular carcinoma (HCC), C3A, Hep3B, HepG2, PLC/PRF/5, SNU182, SNU387, SNU398, SNU423, SNU449 and SNU475 were purchased from the ATCC. Human breast tumor cell lines, HCC2218, HCC1419, BT-474, SK-BR-3, UACC893, JIMT-1, MDA-MB-361, HCC202, MDA-MB-175-VII, HCC1569, HCC1937, HCC38, MDA-MB-157, HCC1954, HCC1500, BT483, KPL-1, SUM225 and ZR-75-1 from ATCC, SUM52 and SUM190 from Asterand, PLC (Detroit Mich.), were cultured in RPMI 1640 medium containing 10% FBS; SKBR3-W13 and BT-474-J4 cultured in RPMI 1640 medium containing 10% FBS and 1 μM lapatinib; KPL4 line was kindly provided by Dr Junichi Kurebayashi (Kawasaki Medical School, Okayama, Japan) and cultured in DMEM containing 5% FBS. JIMT-1 from European Collection of Cell Cultures (UK), is a line derived from a patient clinically resistant to trastuzumab (Herceptin®). SK-BR-3-W13 is a single cell clone isolated by a cloning cylinder after a single treatment of SK-BR-3 cells with 0.5 μM lapatinib. BT-474-J4 is a single cell clone derived from a pool of BT-474 cells that were selected to grow in lapatinib to a concentration of 3 μM.
(§2) Cells were seeded in a 96-well tissue culture plate (NUNC 136102) of RPMI medium containing 10% FBS at 500-2,000 cells per well. Approximately 24 hours after plating, cells were exposed to ten, two-fold or three-fold serial dilutions of either Compound A or B or the combination of the two agents at a 2:1 molar ratio (Compounds A and B respectively). In some cases, cells were grown in RPMI media containing 10% FBS and in the presence or absence of 2 ng/mL hepatocyte growth factor (HGF). Cells were incubated in the presence of compounds for 3 days. ATP levels were determined by adding Cell Titer Glo® (Promega) according to the manufacturer's protocol. Briefly, Cell Titer Glo® was added to each plate, incubated for 20 minutes then luminescent signal was read on the SpectraMax L plate reader with a 0.5 sec integration time. All assays were run at least in duplicate.
(§3) Inhibition of cell growth was estimated after treatment with compound or combination of compounds for three days and comparing the signal to cells treated with vehicle (DMSO). Cell growth was calculated relative to vehicle (DMSO) treated control wells. Concentration of compound that inhibits 50% of control cell growth (IC50) was back-interpolated when y=50% of DMSO treated control wells using nonlinear regression with the equation: […]
(§4) where A is the minimum response (ymin), B is the maximum response (Ymax), C is the inflection point of the curve (EC50) and D is the Hill coefficient.
(§5) Combination effects on potency were evaluated using the Combination Index (CI) and Excess Over Highest Single Agent (EHOSA) methods.

SNU423 = assay: as above; format: cell-based; settings: Homo sapiens, SNU-423, 72 h, 3 days
Description: as §1, §2, §3, §4, §5

Hep3B = assay: as above; format: cell-based; settings: Homo sapiens, 72 h, 3 days
Description: as §1, §2, §3, §4, §5

PLC/RF/5 = assay: as above; format: cell-based; settings: Homo sapiens, 72 h, 3 days
Description: as §1, §2, §3, §4, §5

SNU387 = assay: as above; format: cell-based; settings: Homo sapiens, SNU-387, 72 h, 3 days
Description: as §1, §2, §3, §4, §5

C3A = assay: as above; format: cell-based; settings: Homo sapiens, 72 h, 3 days
Description: as §1, §2, §3, §4, §5

SNU398 = assay: as above; format: cell-based; settings: Homo sapiens, SNU-398, 72 h, 3 days
Description: as §1, §2, §3, §4, §5

SNU475 = assay: as above; format: cell-based; settings: Homo sapiens, SNU-475, 72 h, 3 days
Description: as §1, §2, §3, §4, §5

HepG2 = assay: as above; format: cell-based; settings: Homo sapiens, HepG2, 72 h, 3 days
Description: as §1, §2, §3, §4, §5

KPL4 = assay: Cell growth inhibition assay, breast tumor cell line (Cell Titer Glo); format: cell-based; settings: Homo sapiens, 72 h, KPL4 (HER2+), 3 days
Description: as §1, §2, §3, §4, §5
DNA Copy number data on the HER2 gene was collected for all breast cancer cell lines using the Affymetrix 500K chip (Affymetrix Inc, Sunnyvale, Calif.). Briefly DNA was extracted from each line, digested with the restriction enzyme Nsp or Sty, ligated to an adaptor and amplified by PCR. After PCR, DNA was fragmented, labeled, denatured, and hybridized to the Affymetrix 500K chip. Upon completion of hybridization, each assay was washed and stained. Image data were acquired. Similarly collected data from a panel 10 diploid non-tumorigenic lymphoblastic cell lines were used to calculate DNA copy number. All ‘SNP Chip’ images ('CEL files'), were extracted, read and normalized using the dChip software package (Lin et al. 2004. Bioinformatics. 20:1233-40). SNP-wise ‘copy-number ratios’ (log2 scale) were calculated for all cancer cell lines using the lymphoblastic reference panel and analyzed by circular binary segmentation to reduce noise (Olshen et al. 2004. Biostatistics. 5:557-72). Cell lines with log2 ratios of HER2>0.65 were considered HER2+.

SNU449 = assay: Cell growth inhibition assay, hepatocellular carcinoma cell line (Cell Titer Glo); format: cell-based, human; settings: 3 days
Description: as §1
Cells were seeded in a 96-well tissue culture plate (NUNC 136102) of RPMI medium containing 10% FBS at 500-2,000 cells per well. […] ATP levels were determined by adding Cell Titer Glo® (Promega) according to the manufacturer's protocol. Briefly, Cell Titer Glo® was added to each plate, incubated for 20 minutes then luminescent signal was read on the SpectraMax L plate reader with a 0.5 sec integration time. […]
Inhibition of cell growth was estimated after treatment with compound or combination of compounds for three days and comparing the signal to cells treated with vehicle (DMSO). Cell growth was calculated relative to vehicle (DMSO) treated control wells. […]
as §5

[1] = HGF + (2 ng/ml), read-out: Single agent IC50, Compound A
[2] = HGF −, read-out: Single agent IC50, Compound A
[3] = HGF + (2 ng/ml), read-out: Single agent IC50, Compound B
[4] = HGF −, read-out: Single agent IC50, Compound B

IC50 (SNU182; SNU182, HGF + (2 ng/ml), read-out: Single agent IC50, Compound A): 1280 ± 1220 nM
IC50 (SNU182; SNU182, HGF −, read-out: Single agent IC50, Compound A): 1760 ± 224 nM
IC50 (SNU423; SNU423, HGF + (2 ng/ml), read-out: Single agent IC50, Compound A): 577 ± 569 nM
IC50 (SNU423; SNU423, HGF −, read-out: Single agent IC50, Compound A): 218 ± 130 nM
IC50 (Hep3B; [1]): 37 ± 8 nM
IC50 (Hep3B; [2]): 26 ± 8 nM
IC50 (PLC/RF/5; PLC/RF/5, HGF + (2 ng/ml), read-out: Single agent IC50, Compound A): 2870 ± 1560 nM
IC50 (PLC/RF/5; PLC/RF/5, HGF −, read-out: Single agent IC50, Compound A): 1600 ± 509 nM
IC50 (SNU387; SNU387, HGF + (2 ng/ml), read-out: Single agent IC50, Compound A): 94 ± 21 nM
IC50 (SNU387; SNU387, HGF −, read-out: Single agent IC50, Compound A): 74 ± 46 nM
IC50 (C3A; [1]): 36 ± 11 nM
IC50 (C3A; [2]): 10 ± 3 nM
IC50 (SNU398; SNU398, HGF + (2 ng/ml), read-out: Single agent IC50, Compound A): > 5000 nM
IC50 (SNU398; SNU398, HGF −, read-out: Single agent IC50, Compound A): > 5000 nM
IC50 (SNU475; SNU475, HGF + (2 ng/ml), read-out: Single agent IC50, Compound A): > 5000 nM
IC50 (SNU475; SNU475, HGF −, read-out: Single agent IC50, Compound A): > 5000 nM
IC50 (HepG2; HepG2, HGF + (2 ng/ml), read-out: Single agent IC50, Compound A): 3 ± 1 nM
IC50 (HepG2; HepG2, HGF −, read-out: Single agent IC50, Compound A): 1 nM
IC50 (KPL4; read-out: Single agent IC50, Compound A): > 1000 nM
IC50 (SNU449; Homo sapiens, SNU-449, 72 h, SNU449, HGF −, read-out: Single agent IC50, Compound A): > 5000 nM
IC50 (SNU449; SNU449, HGF + (2 ng/ml), read-out: Single agent IC50, Compound A): > 5000 nM
Structure (SMILES): CC(=O)Nc1cccc(-n2c(=O)n(C3CC3)c(=O)c3c(Nc4ccc(I)cc4F)n(C)c(=O)c(C)c32)c1 [Compound A, N-{3-[3-cyclopropyl-5-[(2-fluoro-4-iodophenyl)amino]-6,8-dimethyl-2,4,7-trioxo-3,4,6,7-tetrahydropyrido[4,3-d]pyrimidin-1(2H)-yl]phenyl}acetamide]

IC50 (SNU182; SNU182, HGF + (2 ng/ml), read-out: Single agent IC50, Compound B): 17 ± 4 nM
IC50 (SNU182; SNU182, HGF −, read-out: Single agent IC50, Compound B): 17 ± 1 nM
IC50 (SNU423; SNU423, HGF + (2 ng/ml), read-out: Single agent IC50, Compound B): 21 ± 7 nM
IC50 (SNU423; SNU423, HGF −, read-out: Single agent IC50, Compound B): 23 ± 16 nM
IC50 (Hep3B; [3]): 57 ± 20 nM
IC50 (Hep3B; [4]): 28 ± 2 nM
IC50 (PLC/RF/5; PLC/RF/5, HGF + (2 ng/ml), read-out: Single agent IC50, Compound B): 15 ± 1 nM
IC50 (PLC/RF/5; PLC/RF/5, HGF −, read-out: Single agent IC50, Compound B): 18 ± 12 nM
IC50 (SNU387; SNU387, HGF + (2 ng/ml), read-out: Single agent IC50, Compound B): 71 ± 10 nM
IC50 (SNU387; SNU387, HGF −, read-out: Single agent IC50, Compound B): 103 ± 10 nM
IC50 (C3A; [3]): 13 ± 1 nM
IC50 (C3A; [4]): 13 ± 1 nM
IC50 (SNU398; SNU398, HGF + (2 ng/ml), read-out: Single agent IC50, Compound B): 83 ± 2 nM
IC50 (SNU398; SNU398, HGF −, read-out: Single agent IC50, Compound B): 98 ± 21 nM
IC50 (SNU475; SNU475, HGF + (2 ng/ml), read-out: Single agent IC50, Compound B): 39 ± 17 nM
IC50 (SNU475; SNU475, HGF −, read-out: Single agent IC50, Compound B): 50 ± 19 nM
IC50 (HepG2; HepG2, HGF + (2 ng/ml), read-out: Single agent IC50, Compound B): 9 ± 5 nM
IC50 (HepG2; HepG2, HGF −, read-out: Single agent IC50, Compound B): 9 ± 8 nM
IC50 (KPL4; read-out: Single agent IC50, Compound B): 3 ± 1 nM
IC50 (SNU449; Homo sapiens, SNU-449, 72 h, SNU449, HGF −, read-out: Single agent IC50, Compound B): 24 ± 5 nM
Structure (SMILES): COc1ncc(-c2ccc3nccc(-c4ccnnc4)c3c2)cc1NS(=O)(=O)c1ccc(F)cc1F [Compound B, 2,4-difluoro-N-{2-(methyloxy)-5-[4-(4-pyridazinyl)-6-quinolinyl]-3-pyridinyl}benzenesulfonamide]
